Measurements published in ChEMBL document CHEMBL1201862, “PubChem BioAssay data set” (2004).
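Interpolation was linear, between the two tested concentrations surrounding the appropriate level; five concentrations were tested over 48 hours in 96-well plates. At the GI50, growth is halved.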 Activity calls are given as the source filed them. Rule as the data show it: active = GI50 up to about 1.1 µM and inactive = higher.

Legend:
Assay in all cases: NCI tumour cell line growth inhibition, 48 h
786-0 = tested on: 786-0
A549 = tested on: A549
ACHN = tested on: ACHN
CAKI-1 = tested on: CAKI-1
CCRF-CEM = tested on: CCRF-CEM
COLO 205 = tested on: COLO 205
DU-145 = tested on: DU-145
EKVX = tested on: EKVX
HCC 2998 = tested on: HCC 2998
HCT-116 = tested on: HCT-116
HCT-15 = tested on: HCT-15
HOP-62 = tested on: HOP-62
HT-29 = tested on: HT-29
Hs-578T = tested on: Hs-578T
IGROV-1 = tested on: IGROV-1
K562 = tested on: K562
KM12 = tested on: KM12
LOX IMVI = tested on: LOX IMVI
MCF7 = tested on: MCF7
MDA-MB-231 = tested on: MDA-MB-231
MDA-MB-435 = tested on: MDA-MB-435
MDA-N = tested on: MDA-N
MOLT-4 = tested on: MOLT-4
NCI-H226 = tested on: NCI-H226
NCI-H23 = tested on: NCI-H23
NCI-H460 = tested on: NCI-H460
NCI-H522 = tested on: NCI-H522
NCI/ADR-RES = tested on: NCI/ADR-RES
OVCAR-3 = tested on: OVCAR-3
OVCAR-4 = tested on: OVCAR-4
OVCAR-5 = tested on: OVCAR-5
OVCAR-8 = tested on: OVCAR-8
PC-3 = tested on: PC-3
RPMI-8226 = tested on: RPMI-8226
RXF 393 = tested on: RXF 393
SF-268 = tested on: SF-268
SF-295 = tested on: SF-295
SF-539 = tested on: SF-539
SK-MEL-28 = tested on: SK-MEL-28
SK-MEL-2 = tested on: SK-MEL-2
SK-MEL-5 = tested on: SK-MEL-5
SK-OV-3 = tested on: SK-OV-3
SN12C = tested on: SN12C
SNB-19 = tested on: SNB-19
SNB-75 = tested on: SNB-75
SR = tested on: SR
SW-620 = tested on: SW-620
T47D = tested on: T47D
TK-10 = tested on: TK-10
U-251 = tested on: U-251
UACC-257 = tested on: UACC-257
UACC-62 = tested on: UACC-62
UO-31 = tested on: UO-31
A498 = tested on: A498
HL-60 = tested on: HL-60
HOP-92 = tested on: HOP-92
M14 = tested on: M14
Malme-3M = tested on: Malme-3M

O=C(Oc1ccc(C(c2c(O)c3ccccc3oc2=O)c2c(O)c3ccccc3oc2=O)cc1)c1ccc(C(=O)c2ccccc2)cc1
GI50 (786-0): 33 µM (inactive)
GI50 (A549): 25.3 µM (inactive)
GI50 (ACHN): 19.3 µM (inactive)
GI50 (CAKI-1): 28 µM (inactive)
GI50 (CCRF-CEM): 22.6 µM (inactive)
GI50 (COLO 205): 29.2 µM (inactive)
GI50 (DU-145): 29.1 µM (inactive)
GI50 (EKVX): 16.7 µM (inactive)
GI50 (HCC 2998): 18.8 µM (inactive)
GI50 (HCT-116): 34.2 µM (inactive)
GI50 (HCT-15): 37.2 µM
GI50 (HOP-62): 24.1 µM (inactive)
GI50 (HT-29): 17.7 µM (inactive)
GI50 (Hs-578T): 37.7 µM (inactive)
GI50 (IGROV-1): 21.4 µM (inactive)
GI50 (K562): 22.1 µM (inactive)
GI50 (KM12): 17.1 µM (inactive)
GI50 (LOX IMVI): 21.9 µM (inactive)
GI50 (MCF7): 29.4 µM (inactive)
GI50 (MDA-MB-231): 35.6 µM (inactive)
GI50 (MDA-MB-435): 20.3 µM (inactive)
GI50 (MDA-N): 36.1 µM (inactive)
GI50 (MOLT-4): 20.7 µM (inactive)
GI50 (NCI-H226): 10.6 µM (inactive)
GI50 (NCI-H23): 18.5 µM (inactive)
GI50 (NCI-H460): 22.1 µM (inactive)
GI50 (NCI-H522): 15.4 µM (inactive)
GI50 (NCI/ADR-RES): 17.3 µM (inactive)
GI50 (OVCAR-3): 18.3 µM (inactive)
GI50 (OVCAR-4): 38.4 µM (inactive)
GI50 (OVCAR-5): 19.4 µM (inactive)
GI50 (OVCAR-8): 16.6 µM (inactive)
GI50 (PC-3): 18.7 µM (inactive)
GI50 (RPMI-8226): 22.6 µM (inactive)
GI50 (RXF 393): 27.3 µM (inactive)
GI50 (SF-268): 25.6 µM (inactive)
GI50 (SF-295): 22 µM (inactive)
GI50 (SF-539): 17.3 µM (inactive)
GI50 (SK-MEL-28): 13.6 µM (inactive)
GI50 (SK-MEL-2): 17.8 µM (inactive)
GI50 (SK-MEL-5): 29.3 µM (inactive)
GI50 (SK-OV-3): 16.7 µM (inactive)
GI50 (SN12C): 43 µM (inactive)
GI50 (SNB-19): 17.4 µM (inactive)
GI50 (SNB-75): 17.7 µM (inactive)
GI50 (SR): 26.1 µM (inactive)
GI50 (SW-620): 32.7 µM (inactive)
GI50 (T47D): 34.5 µM (inactive)
GI50 (TK-10): 17.9 µM (inactive)
GI50 (U-251): 23.6 µM (inactive)
GI50 (UACC-257): 17.2 µM (inactive)
GI50 (UACC-62): 19.6 µM (inactive)
GI50 (UO-31): 17.8 µM (inactive)

O=C1c2cc3c(cc2CC12Cc1ccc4c(c1C2=O)CCC4)CCC3 (stereo unspecified)
GI50 (786-0): 65.6 µM (inactive)
GI50 (A498): > 100 µM (inactive)
GI50 (A549): > 100 µM (inactive)
GI50 (ACHN): > 100 µM (inactive)
GI50 (CAKI-1): > 100 µM (inactive)
GI50 (CCRF-CEM): > 100 µM (inactive)
GI50 (DU-145): > 100 µM (inactive)
GI50 (EKVX): > 100 µM (inactive)
GI50 (HCC 2998): > 100 µM (inactive)
GI50 (HCT-116): > 100 µM (inactive)
GI50 (HCT-15): > 100 µM
GI50 (HL-60): > 100 µM (inactive)
GI50 (HOP-62): 74 µM (inactive)
GI50 (HOP-92): > 100 µM (inactive)
GI50 (HT-29): > 100 µM (inactive)
GI50 (Hs-578T): > 100 µM (inactive)
GI50 (IGROV-1): > 100 µM (inactive)
GI50 (K562): > 100 µM (inactive)
GI50 (LOX IMVI): > 100 µM (inactive)
GI50 (M14): > 100 µM (inactive)
GI50 (MCF7): > 100 µM (inactive)
GI50 (MDA-MB-231): > 100 µM (inactive)
GI50 (MDA-MB-435): > 100 µM (inactive)
GI50 (MDA-N): > 100 µM (inactive)
GI50 (MOLT-4): > 100 µM (inactive)
GI50 (Malme-3M): 41.7 µM (inactive)
GI50 (NCI-H23): > 100 µM (inactive)
GI50 (NCI-H460): > 100 µM (inactive)
GI50 (NCI-H522): > 100 µM (inactive)
GI50 (NCI/ADR-RES): > 100 µM (inactive)
GI50 (OVCAR-3): 75.5 µM (inactive)
GI50 (OVCAR-4): 50.6 µM (inactive)
GI50 (OVCAR-5): > 100 µM (inactive)
GI50 (OVCAR-8): > 100 µM (inactive)
GI50 (PC-3): > 100 µM (inactive)
GI50 (RPMI-8226): > 100 µM (inactive)
GI50 (RXF 393): > 100 µM (inactive)
GI50 (SF-268): > 100 µM (inactive)
GI50 (SF-295): > 100 µM (inactive)
GI50 (SF-539): > 100 µM (inactive)
GI50 (SK-MEL-28): > 100 µM (inactive)
GI50 (SK-MEL-2): > 100 µM (inactive)
GI50 (SK-MEL-5): > 100 µM (inactive)
GI50 (SK-OV-3): 43.8 µM (inactive)
GI50 (SNB-19): 94.6 µM (inactive)
GI50 (SNB-75): > 100 µM (inactive)
GI50 (SR): > 100 µM (inactive)
GI50 (SW-620): > 100 µM (inactive)
GI50 (T47D): > 100 µM (inactive)
GI50 (TK-10): > 100 µM (inactive)
GI50 (U-251): 33.6 µM (inactive)
GI50 (UACC-257): > 100 µM (inactive)
GI50 (UO-31): > 100 µM (inactive)
